Measured values reported in ChEMBL document CHEMBL4665677, “Recent Advances of SHP2 Inhibitors in Cancer Therapy: Current Development and Clinical Application” (J Med Chem, 2020).
Each block holds one compound with its values, some of them ahead of it.

Legend:
[1] = target: T1, Tyrosine-protein phosphatase non-receptor type 11 (Homo sapiens, UniProt Q06124); assay: Allosteric inhibition of full-length His6-tagged human SHP2 (2 to 527 residues) expressed in Escherichia coli using DiFMUP as substrate in presence of activating peptide (LN(pY)IDLDLV(dPEG8)LST(pY)ASINFQK-amide) by fluorescence method
T1 sequence (Q06124 whole entry): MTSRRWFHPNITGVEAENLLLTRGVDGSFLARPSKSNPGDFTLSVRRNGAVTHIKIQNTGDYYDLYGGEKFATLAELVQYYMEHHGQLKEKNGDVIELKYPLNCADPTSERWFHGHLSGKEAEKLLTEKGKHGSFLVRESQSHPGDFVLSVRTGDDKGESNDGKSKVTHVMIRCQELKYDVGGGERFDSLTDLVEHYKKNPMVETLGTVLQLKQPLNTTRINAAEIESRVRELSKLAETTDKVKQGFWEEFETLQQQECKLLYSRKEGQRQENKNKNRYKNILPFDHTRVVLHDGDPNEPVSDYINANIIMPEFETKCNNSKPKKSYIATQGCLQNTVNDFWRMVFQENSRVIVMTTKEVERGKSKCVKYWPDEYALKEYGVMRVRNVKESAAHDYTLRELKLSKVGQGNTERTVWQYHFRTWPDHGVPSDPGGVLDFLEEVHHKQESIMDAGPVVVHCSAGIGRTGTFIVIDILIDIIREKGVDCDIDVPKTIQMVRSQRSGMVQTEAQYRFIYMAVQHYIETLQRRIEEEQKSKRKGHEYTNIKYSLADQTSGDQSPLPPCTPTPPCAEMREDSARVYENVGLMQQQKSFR

[2] = target: T1, Tyrosine-protein phosphatase non-receptor type 11; assay: Allosteric inhibition of dPEG8 peptide-activated SHP2 (unknown origin) using DiFMUP as substrate preincubated for 30 followed by substrate addition and measured after 30 mins by fluorescence method
[3] = target: T1, Tyrosine-protein phosphatase non-receptor type 11; assay: Inhibition of SHP2 PTP domain (unknown origin)
[4] = target: Tyrosine-protein phosphatase non-receptor type 11 (Homo sapiens, UniProt Q06124, Q257L/T253M); assay: Inhibition of SHP2 T253M/Q257L double mutant (unknown origin)
[5] = target: T2, Tyrosine-protein phosphatase non-receptor type 1 (Homo sapiens, UniProt P18031); assay: Inhibition of PTP1B (unknown origin) using 6,8-difluoro-4-methylum-belliferylphosphate as substrate preincubated for 1 hr followed by substrate by fluorescence method
T2 sequence (P18031 whole entry): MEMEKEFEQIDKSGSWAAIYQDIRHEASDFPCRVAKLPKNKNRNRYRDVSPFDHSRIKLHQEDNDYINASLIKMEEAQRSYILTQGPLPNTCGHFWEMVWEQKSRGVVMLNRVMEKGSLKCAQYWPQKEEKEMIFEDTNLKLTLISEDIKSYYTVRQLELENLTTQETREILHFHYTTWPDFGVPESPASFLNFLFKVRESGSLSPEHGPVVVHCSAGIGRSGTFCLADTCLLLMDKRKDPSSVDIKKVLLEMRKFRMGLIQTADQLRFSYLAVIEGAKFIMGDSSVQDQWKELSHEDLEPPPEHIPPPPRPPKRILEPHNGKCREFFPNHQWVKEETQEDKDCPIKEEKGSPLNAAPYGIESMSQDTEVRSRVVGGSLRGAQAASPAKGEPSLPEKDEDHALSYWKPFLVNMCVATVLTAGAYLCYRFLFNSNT

[6] = target: T1, Tyrosine-protein phosphatase non-receptor type 11; assay: Inhibition of N-terminal His6-tagged TEV cleavage site-fused human SHP2 catalytic domain (248 to 527 residues) expressed in Escherichia coli Rosetta(DE3) using 6,8-difluoro-4-methylum-belliferylphosphate as substrate preincubated for 1 hr followed by substrate addition by fluorescence method
[7] = target: T3, Tyrosine-protein phosphatase non-receptor type 6 (Homo sapiens, UniProt P29350); assay: Inhibition of SHP1 (unknown origin) using 6,8-difluoro-4-methylum-belliferylphosphate as substrate preincubated for 1 hr followed by substrate by fluorescence method
[8] = Antitumor activity against human LXFA526L cells xenografted in NMRI nu/nu mouse assessed as induction of tumor regression at 46 mg/kg, ip administered once daily and measured on day 27 relative to control; assay type: functional; conditions: time 27 day
[9] = target: T4, Tyrosine-protein phosphatase non-receptor type 11 (Homo sapiens) (UniProt Q06124); assay: Allosteric inhibition of dPEG8 peptide-activated SHP2 (unknown origin) using DiFMUP as substrate at 100 nM preincubated for 30 followed by substrate addition and measured after 30 mins by fluorescence method relative to control
T4 sequence (whole entry): T1 sequence (Q06124 whole entry)

[10] = target: T1, Tyrosine-protein phosphatase non-receptor type 11; assay: Allosteric inhibition of SHP2 (unknown origin) using DiFMUP as substrate preincubated for 60 mins in presence of activating peptide IRS-1 followed by substrate addition and measured after 60 mins by fluorescence method
[11] = target: T3, Tyrosine-protein phosphatase non-receptor type 6; assay: Inhibition of recombinant His6-fused SHP1 catalytic domain (unknown origin) using p-nitrophenyl phosphate as substrate by spectrophotometric analysis
MeWo = assay: Antitumor activity against human MeWo cells xenografted in NSG (NOD/scid/IL2Rgnull) mouse assessed as reduction in tumor volume at 15 mg/kg, ip administered once daily for 21 days; assay type: functional; parameters: scale not given: the % may be the effect or the level left; conditions: time 21 day
[12] = target: T1, Tyrosine-protein phosphatase non-receptor type 11; assay: Allosteric inhibition of full length N-terminal His6-tagged human SHP2 (2 to 593 residues) expressed in Escherichia coli using DiFMUP as substrate in presence of activating peptide preincubated for 60 mins followed by substrate addition amd measured after 30 mins by fluorescence method
[13] = target: T1, Tyrosine-protein phosphatase non-receptor type 11; assay: Allosteric inhibition of IRS1_pY1172(dPEG8)pY1222 activated-human full length SHP2 (Met1 to Leu525 residues) expressed in Escherichia coli BL21 Star (DE3) cells using DiFMUP as substrate preincubated for 30 to 60 mins followed by substrate addition and measured after 30 mins by fluorescence method
[14] = target: T2, Tyrosine-protein phosphatase non-receptor type 1; assay: Inhibition of N-terminal His6-tagged TEV cleavage site-fused human PTP1B (2 to 297 residues) expressed in Escherichia coli BL21(DE3)RILcodon+ or BL21(DE3)RPcodon+ using 4-nitrophenylphosphate as substrate
[15] = target: T3, Tyrosine-protein phosphatase non-receptor type 6; assay: Inhibition of N-terminal His6-tagged TEV cleavage site-fused human SHP1 (222 to 535 residues) expressed in Escherichia coli BL21(DE3)RILcodon+ or BL21(DE3)RPcodon+ using 4-nitrophenylphosphate as substrate
[16] = target: T1, Tyrosine-protein phosphatase non-receptor type 11; assay: Allosteric inhibition of [IRSl_pY1172(dPEG8)pY1222] peptide-activated SHP2 (unknown origin) using DiFMUP as substrate preincubated for 30 to 60 mins followed by substrate addition and measured after 30 mins by fluorescence method
[17] = target: T3, Tyrosine-protein phosphatase non-receptor type 6; assay: Inhibition of His6-fused human SHP1 catalytic domain expressed in Escherichia coli cells using DiFMUP as substrate preincubated for 30 followed by substrate addition and by fluorescence method
[18] = target: T2, Tyrosine-protein phosphatase non-receptor type 1; assay: Inhibition of His6-fused human PTP1B expressed in Escherichia coli cells using DiFMUP as substrate preincubated for 30 followed by substrate addition and by fluorescence method
[19] = target: T3, Tyrosine-protein phosphatase non-receptor type 6; assay: Inhibition of His6-fused human full length SHP1 expressed in Escherichia coli cells using DiFMUP as substrate preincubated for 30 mins followed by substrate addition and by fluorescence method

T3 sequence (P29350 whole entry): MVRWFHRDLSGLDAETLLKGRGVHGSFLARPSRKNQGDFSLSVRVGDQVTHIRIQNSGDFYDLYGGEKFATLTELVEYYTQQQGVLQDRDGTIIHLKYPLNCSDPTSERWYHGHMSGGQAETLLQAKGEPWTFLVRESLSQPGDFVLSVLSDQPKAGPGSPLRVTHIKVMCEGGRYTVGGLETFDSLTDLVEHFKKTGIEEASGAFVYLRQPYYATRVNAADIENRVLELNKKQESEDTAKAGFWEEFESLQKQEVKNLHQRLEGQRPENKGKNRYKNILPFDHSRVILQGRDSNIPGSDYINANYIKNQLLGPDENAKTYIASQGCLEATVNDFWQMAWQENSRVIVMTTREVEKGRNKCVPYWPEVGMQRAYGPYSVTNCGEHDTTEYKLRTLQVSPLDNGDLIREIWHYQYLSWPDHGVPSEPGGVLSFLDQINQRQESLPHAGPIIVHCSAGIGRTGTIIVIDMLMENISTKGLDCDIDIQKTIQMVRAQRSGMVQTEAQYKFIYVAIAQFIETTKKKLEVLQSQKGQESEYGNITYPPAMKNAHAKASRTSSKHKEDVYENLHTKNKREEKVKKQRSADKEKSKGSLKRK
Tyrosine-protein phosphatase non-receptor type 11 (Homo sapiens, UniProt Q06124, Q257L/T253M), sequence (Q06124 2-593 T253M/Q257L limits assumed): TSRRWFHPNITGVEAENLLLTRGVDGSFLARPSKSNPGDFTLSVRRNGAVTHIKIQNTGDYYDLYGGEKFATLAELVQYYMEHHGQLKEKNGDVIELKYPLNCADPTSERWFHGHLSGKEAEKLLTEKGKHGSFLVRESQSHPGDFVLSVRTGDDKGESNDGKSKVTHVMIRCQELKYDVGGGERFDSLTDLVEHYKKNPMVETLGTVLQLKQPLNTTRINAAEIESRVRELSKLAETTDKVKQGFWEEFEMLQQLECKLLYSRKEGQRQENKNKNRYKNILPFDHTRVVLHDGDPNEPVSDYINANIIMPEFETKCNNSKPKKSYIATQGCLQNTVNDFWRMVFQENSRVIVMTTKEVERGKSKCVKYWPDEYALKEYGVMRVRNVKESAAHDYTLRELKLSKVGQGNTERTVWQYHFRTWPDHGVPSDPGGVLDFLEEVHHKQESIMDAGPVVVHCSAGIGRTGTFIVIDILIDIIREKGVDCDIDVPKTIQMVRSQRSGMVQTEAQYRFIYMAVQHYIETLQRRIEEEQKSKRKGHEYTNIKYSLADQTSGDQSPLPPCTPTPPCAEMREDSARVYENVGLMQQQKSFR

- IC50 [1]: 0.1 µM
Compound: C[C@@H]1OCC2(CCC(c3cnc4nc(Sc5ccnc(N6CCCC6)c5Cl)ccc4n3)CC2)[C@@H]1N (some centres undefined)

- IC50 [2]: 0.007 µM
Compound: Nc1nc(N2CCC3(CC2)Cc2ccncc2[C@H]3N)cnc1Sc1ccnc(N)c1Cl

Compound: COc1cccc(-c2nnc3n(Cc4ccccc4Cl)c(=O)c4ccccc4n23)c1O
- IC50 [3]: > 100 µM
- IC50 [4]: 68 µM

Compound: O=C1/C(=N\Nc2ccc(S(=O)(=O)O)cc2)C(c2ccc([N+](=O)[O-])cc2)=NN1c1ccc([N+](=O)[O-])cc1
- IC50 [5]: 3.17 µM
- IC50 [6]: 0.07 µM
- IC50 [7]: 2.08 µM
- Activity [8]: 42.6%

- IC50 [3]: > 100 µM
Compound: COc1cccc(-c2nnc3n(Cc4ccc(C(=O)N5CCC[C@H]5C(=O)O)cc4Cl)c(=O)c4ccccc4n23)c1O

- inhibition ([9]; filed as negative allosteric modulator): 49%
Compound: Nc1nc(N2CCC3(CC2)Cc2ncsc2[C@H]3N)cnc1Sc1ccnc(N)c1Cl

- IC50 [5]: 6.8 µM
- IC50 [6]: 0.5 µM
- IC50 [7]: 2.14 µM
Compound: COc1ccc(N2N=C(c3ccc([N+](=O)[O-])cc3)/C(=N/Nc3ccc(S(=O)(=O)O)cc3)C2=O)cc1

- IC50 [3]: > 100 µM
Compound: O=C(O)c1ccc(O)c(-c2nnc3n(Cc4ccccc4Cl)c(=O)c4ccccc4n23)c1

- IC50 [10]: < 0.05 µM
Compound: CC1(CN)CCN(c2ncc(Sc3cccc(Cl)c3Cl)[nH]c2=O)CC1

- inhibition [9]: 20%
Compound: Nc1nc(N2CCC3(CC2)c2ncccc2C[C@H]3N)cnc1Sc1ccnc(N)c1Cl

- inhibition [9]: 30%
Compound: Nc1nc(N2CCC3(CC2)Cc2ncccc2[C@H]3N)cnc1Sc1ccnc(N)c1Cl

- IC50 [11]: 11 µM
Compound: NC(=O)[C@H](Cc1ccc(C(F)(F)P(=O)(O)O)cc1)NC(=O)[C@H](CC(=O)O)NC(=O)Cc1ccc(C(F)(F)P(=O)(O)O)cc1

Compound: O=C(Nc1ccc(-c2cc[nH]c2)cc1)C(=O)Nc1cccc(-c2[nH]c3cc(O)c(C(=O)O)cc3c2I)c1
- Activity (MeWo): 52%

- IC50 [12]: 0.0179 µM
Compound: CC1(N)CCN(c2cnc3c(-c4cccc(Cl)c4Cl)n[nH]c3c2)CC1

- IC50 [5]: 8.93 µM
- IC50 [6]: 1.16 µM
- IC50 [7]: 10.2 µM
Compound: O=C1/C(=N\Nc2ccc(S(=O)(=O)O)cc2)C(c2ccc([N+](=O)[O-])cc2)=NN1c1ccc(Cl)cc1

- IC50 [13]: > 100 µM
- IC50 [3]: > 100 µM
Compound: O=c1c2ccccc2n2c(-c3ccccc3O)nnc2n1Cc1ccccc1Cl

- IC50 [12]: 0.0223 µM
Compound: CC1(N)CCN(c2nc3sc(-c4cccc(Cl)c4Cl)nn3c2CO)CC1

- IC50 [14]: 2.1 µM
- IC50 [15]: 1.8 µM
Compound: CCOC(=O)c1ccc(N2N=C(c3ccc([N+](=O)[O-])cc3)/C(=N/Nc3ccc(S(=O)(=O)O)cc3)C2=O)cc1

- IC50 [2]: 0.003 µM
Compound: Nc1nc(N2CCC3(CC2)Cc2cnccc2[C@H]3N)cnc1Sc1ccnc(N)c1Cl

- IC50 [5]: 6.56 µM
- IC50 [6]: 0.41 µM
- IC50 [7]: 9.83 µM
Compound: Cc1ccc(N2N=C(c3ccc([N+](=O)[O-])cc3)/C(=N/Nc3ccc(S(=O)(=O)O)cc3)C2=O)cc1

- IC50 [5]: 10.6 µM
- IC50 [6]: 0.94 µM
- IC50 [7]: 14.4 µM
Compound: O=C1/C(=N\Nc2ccc(S(=O)(=O)O)cc2)C(c2ccc([N+](=O)[O-])cc2)=NN1c1ccc(C(F)(F)F)cc1

- IC50 [16]: 0.07 µM
Compound: Nc1nc(N2CCC3(CCC[C@H]3N)CC2)cnc1-c1cccc(Cl)c1Cl

- IC50 [17]: > 10 µM
- IC50 [18]: > 10 µM
- IC50 [19]: > 10 µM
Compound: Cc1nc(N2CCC3(CC2)CO[C@@H](C)[C@H]3N)c(CO)nc1-c1cccc(Cl)c1Cl
